This is an account of results in patent publication EP4752149A1, “OXYGEN-CONTAINING FUSED TRICYCLIC DERIVATIVE, AND PREPARATION METHOD THEREFOR AND USE THEREOF” (Tuojie Biotech (Shanghai) Co., Ltd., priority 2023, dated 2025).

In general, IC50 refers to the concentration needed to halve the response being measured.

This experiment has as its system Ovarian cancer cells (OVCAR3). Briefly: Inhibitory activity against ovarian cancer cells (OVCAR3), CTG cell viability. Type of experiment: cell-based. Conditions: Homo sapiens, OVCAR-3, 168 h, 7 days with compound. The method, then:
Ovarian cancer cells (OVCAR3) were cultured using an RPMI 1640 culture medium containing 10% FBS in a cell incubator (37 °C, 5% CO2). On day one, the cells were plated in a 384-well plate at a cell concentration of 800 cells/well and cultured overnight in an incubator. On day two, the cells were treated with compounds. The highest compound concentration was 10 µM and was diluted 3-fold to obtain 9 concentrations, and the final concentration of DMSO was 0.1%. After the cells were cultured in the incubator for another 7 days, the cell viability was tested using a CTG Cell Viability Detection Reagent (MCE); the testing method was consistent with the method provided by the kit. Data were processed using GraphPad Prism 8, and IC50 was calculated. [formula] X: the logarithm of the compound concentration; Y: inhibition%. Table 2. The IC50 (nM) of compounds of the present disclosure against OVCAR3
As to `C[C@H]1COc2c(-c3nc(Nc4ccc(N5CCOCC5=O)cc4F)ncc3F)cc(F)c3ncn1c23` [Example 2, (S)-4-(3-Fluoro-4-((5-fluoro-4-(8-fluoro-3-methyl-3,4-dihydro-5-oxa-1,2a-diazaacenaphthylen-6-yl)pyrimidin-2-yl)amino)phenyl)morpholin-3-one], the IC50 worked out at 0.0475 µM.

Consider `CNS(=O)(=O)c1ccc(Nc2ncc(Cl)c(-c3cc(F)c4nc(C(C)(C)O)n5c4c3OC[C@@H]5C)n2)cc1` [Example 5, (S)-4-((5-Chloro-4-(8-fluoro-2-(2-hydroxypropan-2-yl)-3-methyl-3,4-dihydro-5-oxa-1,2a-diazaacenaphthylen-6-yl)pyrimidin-2-yl)amino)-N-methylbenzenesulfonamide], for which the concentration for half-maximal inhibition (IC50) turned out to be 0.0899 µM.

For the compound `Cc1nc2c(F)cc(-c3nc(Nc4ccc(N5CCOCC5=O)cc4F)ncc3F)c3c2n1[C@@H](C)CO3` [Example 6, (S)-4-(3-Fluoro-4-((5-fluoro-4-(8-fluoro-2,3-dimethyl-3,4-dihydro-5-oxa-1,2a-diazaacenaphthylen-6-yl)pyrimidin-2-yl)amino)phenyl)morpholin-3-one], the concentration for half-maximal inhibition (IC50) stood at 0.0802 µM.

For the compound `CNS(=N)(=O)c1ccc(Nc2ncc(Cl)c(-c3cc(F)c4nc(C(C)(C)O)n5c4c3OC[C@@H]5C)n2)c(F)c1` (stereo partly drawn) [Example 9, 4-((5-Chloro-4-((S)-8-fluoro-2-(2-hydroxypropan-2-yl)-3-methyl-3,4-dihydro-5-oxa-1,2a-diazaacenaphthylen-6-yl)pyrimidin-2-yl)amino)-3-fluoro-N-methylbenzenesulfonimide], the IC50 worked out at 0.752 µM.

On to `C[C@H]1COc2c(-c3nc(Nc4ccc(N5CCOCC5=O)cc4)ncc3Cl)cc(F)c3nc(C(C)(C)O)n1c23` [Example 10, (S)-4-(4-((5-Chloro-4-(8-fluoro-2-(2-hydroxypropan-2-yl)-3-methyl-3,4-dihydro-5-oxa-1,2a-diazaacenaphthylen-6-yl)pyrimidin-2-yl)amino)phenyl)morpholin-3-one], for which the IC50 was 0.231 µM.

`CNC(=O)c1ccc(Nc2ncc(Cl)c(-c3cc(F)c4nc(C(C)(C)O)n5c4c3OC[C@@H]5C)n2)cc1` [Example 11, (S)-4-((5-Chloro-4-(8-fluoro-2-(2-hydroxypropan-2-yl)-3-methyl-3,4-dihydro-5-oxa-1,2a-diazaacenaphthylen-6-yl)pyrimidin-2-yl)amino)-N-methylbenzamide]: the IC50 stood at 0.673 µM.

For `C[C@H]1COc2c(-c3nc(Nc4ccc(N5CCC(N(C)C)CC5=O)cc4F)ncc3Cl)cc(F)c3nc(C(C)(C)O)n1c23` (stereo partly drawn) [Example 12, 1-(4-((5-Chloro-4-((S)-8-fluoro-2-(2-hydroxypropan-2-yl)-3-methyl-3,4-dihydro-5-oxa-1,2a-diazaacenaphthylen-6-yl)pyrimidin-2-yl)amino)-3-fluorophenyl)-4-(dimethylamino)piperidin-2-one], the IC50 stood at 0.643 µM.

Consider `C[C@H]1COc2c(-c3nc(Nc4ccc(N5CCOCC5=O)cc4F)ncc3C#N)cc(F)c3nc(C(C)(C)O)n1c23` [Example 13, (S)-4-(8-Fluoro-2-(2-hydroxypropan-2-yl)-3-methyl-3,4-dihydro-5-oxa-1,2a-diazaacenaphthylen-6-yl)-2-((2-fluoro-4-(3-oxomorpholino)phenyl)amino)pyrimidine-5-carbonitrile], for which the IC50 amounted to 0.901 µM.

With `C[C@H]1COc2c(-c3nc(Nc4ccc(S(C)(=N)=O)cc4F)ncc3F)cc(F)c3nc(C(C)(C)O)n1c23` (stereo partly drawn) [Example 15, (3-Fluoro-4-((5-fluoro-4-((S)-8-fluoro-2-(2-hydroxypropan-2-yl)-3-methyl-3,4-dihydro-5-oxa-1,2a-diazaacenaphthylen-6-yl)pyrimidin-2-yl)amino)phenyl)(methyl)sulfonimide], the IC50 turned out to be 0.636 µM.

As for `CNS(=O)(=O)c1ccc(Nc2ncc(F)c(-c3cc(F)c4nc(C(C)(C)O)n5c4c3OC[C@@H]5C)n2)c(F)c1` [Example 16, (S)-3-Fluoro-4-((5-fluoro-4-(8-fluoro-2-(2-hydroxypropan-2-yl)-3-methyl-3,4-dihydro-5-oxa-1,2a-diazaacenaphthylen-6-yl)pyrimidin-2-yl)amino)-N-methylbenzenesulfonamide], the IC50 was determined as 0.223 µM.

Turning to `C[C@H]1COc2c(-c3nc(Nc4ccc(S(C)(=N)=O)cc4)ncc3F)cc(F)c3nc(C(C)(C)O)n1c23` (stereo partly drawn) [Example 17, (4-((5-Fluoro-4-((S)-8-fluoro-2-(2-hydroxypropan-2-yl)-3-methyl-3,4-dihydro-5-oxa-1,2a-diazaacenaphthylen-6-yl)pyrimidin-2-yl)amino)phenyl)(methyl)sulfonimide], the IC50 is 0.154 µM.

With `C[C@H]1COc2c(-c3nc(Nc4ccc(N5CCOCC5=O)cc4)ncc3F)cc(F)c3nc(C(C)(C)O)n1c23` [Example 18, (S)-4-(4-((5-Fluoro-4-(8-fluoro-2-(2-hydroxypropan-2-yl)-3-methyl-3,4-dihydro-5-oxa-1,2a-diazaacenaphthylen-6-yl)pyrimidin-2-yl)amino)phenyl)morpholin-3-one], the IC50 was determined as 0.103 µM.

Regarding `C[C@H]1COc2c(-c3nc(Nc4ccc(S(C)(=N)=O)cc4)ncc3Cl)cc(F)c3nc(C(C)(C)O)n1c23` (stereo partly drawn) [Example 19, (4-((5-Chloro-4-((S)-8-fluoro-2-(2-hydroxypropan-2-yl)-3-methyl-3,4-dihydro-5-oxa-1,2a-diazaacenaphthylen-6-yl)pyrimidin-2-yl)amino)phenyl)(methyl)sulfinamide], the IC50 turned out to be 0.276 µM.

For `CC(O)c1nc2c(F)cc(-c3nc(Nc4ccc(N5CCOCC5=O)cc4F)ncc3F)c3c2n1[C@@H](C)CO3` (stereo partly drawn) [Example 21, 4-(3-Fluoro-4-((5-fluoro-4-((3S)-8-fluoro-2-(1-hydroxyethyl)-3-methyl-3,4-dihydro-5-oxa-1,2a-diazaacenaphthylen-6-yl)pyrimidin-2-yl)amino)phenyl)morpholin-3-one], the IC50 worked out at 0.26 µM.

In the case of `C[C@H]1COc2c(-c3nc(Nc4ccc(N5CCOCC5=O)c(F)c4)ncc3Cl)cc(F)c3nc(C(C)(C)O)n1c23` [Example 24, (S)-4-(4-((5-Chloro-4-(8-fluoro-2-(2-hydroxypropan-2-yl)-3-methyl-3,4-dihydro-5-oxa-1,2a-diazaacenaphthylen-6-yl)pyrimidin-2-yl)amino)2-fluorophenyl)morpholin-3-one], the IC50 was determined as 0.255 µM.

Turning to `C[C@H]1COc2c(-c3nc(Nc4ccc(N5CCOCC5=O)c(Cl)c4)ncc3Cl)cc(F)c3nc(C(C)(C)O)n1c23` [Example 25, (S)-4-(2-Chloro-4-((5-chloro-4-(8-fluoro-2-(2-hydroxypropan-2-yl)-3-methyl-3,4-dihydro-5-oxa-1,2a-diazaacenaphthylen-6-yl)pyrimidin-2-yl)amino)phenyl)morpholin-3-one], the IC50 came out at 0.409 µM.

`COCc1nc2c(F)cc(-c3nc(Nc4ccc(N5CCOCC5=O)cc4F)ncc3F)c3c2n1[C@@H](C)CO3` [Example 26, (S)-4-(3-Fluoro-4-((5-fluoro-4-(8-fluoro-2-(methoxymethyl)-3-methyl-3,4-dihydro-5-oxa-1,2a-diazaacenaphthylen-6-yl)pyrimidin-2-yl)amino)phenyl)morpholin-3-one]: the IC50 was 0.517 µM.

`C[C@H]1COc2c(-c3nc(Nc4ccc(N5CCOCC5=O)cc4F)ncc3F)cc(F)c3nc(C4(O)CCC4)n1c23` [Example 28, (S)-4-(3-Fluoro-4-((5-fluoro-4-(8-fluoro-2-(1-hydroxycyclobutyl)-3-methyl-3,4-dihydro-5-oxa-1,2a-diazaacenaphthylen-6-yl)pyrimidin-2-yl)amino)phenyl)morpholin-3-one]: the IC50 amounted to 0.137 µM.

As for `C[C@H]1COc2c(-c3nc(Nc4ccc(CC#N)cc4)ncc3Cl)cc(F)c3nc(C(C)(C)O)n1c23` [Example 29], the IC50 was found to be 0.335 µM.

On to `CCN1CCN(C(=O)c2ccc(Nc3ncc(Cl)c(-c4cc(F)c5nc(C(C)(C)O)n6c5c4OC[C@@H]6C)n3)cc2F)CC1` [Example 32, (S)-(4-((5-Chloro-4-(8-fluoro-2-(2-hydroxypropan-2-yl)-3-methyl-3,4-dihydro-5-oxa-1,2a-diazaacenaphthylen-6-yl)pyrimidin-2-yl)amino)-2-fluorophenyl)(4-ethylpiperazin-1-yl)methanone], for which the IC50 worked out at 0.426 µM.

Consider `C[C@H]1COc2c(-c3nc(Nc4ccc(C(=O)N5CC[C@H](N(C)C)C5)c(F)c4)ncc3Cl)cc(F)c3nc(C(C)(C)O)n1c23` [Example 35, (4-((5-Chloro-4-((S)-8-fluoro-2-(2-hydroxypropan-2-yl)-3-methyl-3,4-dihydro-5-oxa-1,2a-diazaacenaphthylen-6-yl)pyrimidin-2-yl)amino)2-fluorophenyl)((S)-3-(dimethylamino)pyrrolidin-1-yl)methanone], for which the IC50 was found to be 0.202 µM.

On to `C[C@H]1COc2c(-c3nc(Nc4ccc(C(=O)N5CC[C@H](N(C)C)C5)c(Cl)c4)ncc3Cl)cc(F)c3nc(C(C)(C)O)n1c23` [Example 36, (2-Chloro-4-((5-chloro-4-((S)-8-fluoro-2-(2-hydroxypropan-2-yl)-3-methyl-3,4-dihydro-5-oxa-1,2a-diazaacenaphthylen-6-yl)pyrimidin-2-yl)amino)phenyl)((S)-3-(dimethylamino)pyrrolidin-1-yl)methanone], for which the IC50 was found to be 0.961 µM.

Turning to `C[C@H]1COc2c(-c3nc(Nc4ccc(C(=O)N5CC[C@@H](N(C)C)C5)c(Cl)c4)ncc3Cl)cc(F)c3nc(C(C)(C)O)n1c23` [Example 38, (2-Chloro-4-((5-chloro-4-((S)-8-fluoro-2-(2-hydroxypropan-2-yl)-3-methyl-3,4-dihydro-5-oxa-1,2a-diazaacenaphthylen-6-yl)pyrimidin-2-yl)amino)phenyl)((R)-3-(dimethylamino)pyrrolidin-1-yl)methanone], the half-maximal inhibitory concentration (IC50) came out at 0.69 µM.
